The series in a line: Hygroscopicity by dynamic vapor sorption (DVS). Format: physicochemical. As to conditions: relative humidities from 0% to 90% at 25° C. The procedure:
Hygroscopicity of form I of abexinostat tosylate was assessed using dynamic vapor sorption (DVS) technique. 5 to 10 mg of the drug substance test sample were accurately weighed into a DVS sample pan working at 25° C. under controlled humidity. The mass variation was recorded whilst drying under 0 percent RH (relative humidity) and during two subsequent cycles of increasing and decreasing linear variations of relative humidity in the range 0-90 percent RH at a rate of 10 percent per hour. The relative humidity was maintained constant when it reached either 0 or 90 percent RH until the mass variation was less than 0.002 percent, per minute within a limit of time of 15 h.

From patent US10150748B2, “Salt or abexinostat, associated crystalline form, a process for their preparation and pharmaceutical compositions containing them” (Pharmacyclics LLC, priority 2013, dated 2018) come the findings set out here.

Take `CN(C)Cc1c(C(=O)NCCOc2ccc(C(=O)NO)cc2)oc2ccccc12.Cc1ccc(S(=O)(=O)O)cc1` [form I of abexinostat tosylate, N-hydroxy-4-{2-[3-(N,N-dimethylaminomethyl)benzofuran-2-ylcarbonylamino]ethoxy}benzamide tosylate]: the “increase in weight detected by DVS analysis” value is on record as “lower than 0.5%”.
